What all share (assay): NCI tumour cell line growth inhibition, 48 h
The subject of assay [1] is HCT-116.
For assay [2], the system named is SR.
The test system of assay [3] is K562.
The subject of assay [4] is SW-620.
Assay [5] relates to EKVX.
For assay [6], the system named is IGROV-1.
The test system of assay [7] is UACC-257.
Assay [8] relates to LOX IMVI.
The subject of assay [9] is KM12.
The test system of assay [10] is CCRF-CEM.
The test system of assay [11] is NCI-H460.
Assay [12] deals with HL-60.
Assay [13] has as its system U-251.
The test system of assay [14] is UACC-62.
The test system of assay [15] is OVCAR-4.
For assay [16], the system named is MOLT-4.
Assay [17] concerns SK-MEL-5.
Assay [18] has as its system OVCAR-3.
Assay [19] has as its system SK-OV-3.
In assay [20] the test system is CAKI-1.

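Results reflect a 48-hour exposure of cells in 96-well plates to compound at five concentrations. GI50 is the concentration that inhibits growth by half.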 The source made the active and inactive calls. Cut-off read from the data, not from the text of the source: active = GI50 up to about 1.1 µM and inactive = higher.

For the molecule `Cc1cc(O)nc(NN2C(Cl)C(=O)C2c2cccc([N+](=O)[O-])c2)n1` (centres undefined), the GI50 in assay [1] was 19.7 µM (inactive); in assay [2], 16.9 µM (inactive); in assay [3], 18.3 µM (inactive); in assay [4], 35.1 µM (inactive); in assay [5] it was 63.4 µM (inactive); in [6], > 10 µM (inactive). For the same molecule, the GI50 in [7] was 29 µM (inactive); in [8] it was 12.3 µM (inactive); in [9] it was 25.9 µM (inactive); in assay [10], 3.52 µM (inactive); in assay [11] it was 26.3 µM (inactive); in assay [12], 13.5 µM (inactive). Moreover, the GI50 is 20 µM (inactive) in assay [13]; 19.4 µM (inactive) in assay [14]; 23.6 µM (inactive) in assay [15]; 14.3 µM (inactive) in [16]; 17.5 µM (inactive) in [17]; 14.8 µM (inactive) in [18].
In the case of `CCOC(=O)c1ccc(C(=O)C(C(C)=O)C(=O)OC(C)(C)C)[nH]1` (centres undefined), the GI50 in assay [1], in assay [2], in assay [3], in assay [19], in assay [4] and in assay [5] was > 100 µM (inactive) throughout. In addition, the GI50 in assay [6], in [8], in [20], in [9], in [11] and in [12] was > 100 µM (inactive) throughout. Besides, the GI50 in [13], in assay [14], in assay [15], in assay [16], in assay [17] and in assay [18] was > 100 µM (inactive) in each case.
As to `O=C1c2sc(-c3ccc(F)cc3)cc2-n2cccc21`, the GI50 in [1] was 18.4 µM (inactive); in [2], 17.8 µM (inactive); in assay [3], 10.2 µM (inactive); in [19] it was 28.2 µM (inactive); in assay [4], 47.6 µM (inactive); in [5] it was 1.89 µM (inactive). In addition, the GI50 is 8.39 µM (inactive) in assay [6]; 47.5 µM (inactive) in assay [7]; 32.1 µM (inactive) in assay [8]; 17.1 µM (inactive) in [20]; 26.4 µM (inactive) in assay [9]; 28.5 µM (inactive) in [10]. For the same molecule, the GI50 in assay [11] is 24.9 µM (inactive); in assay [13] it was 16.4 µM (inactive); in assay [14], 28.3 µM (inactive); in assay [15], 28.1 µM (inactive); in [16] it was 21.4 µM (inactive); in assay [17] it was 38.5 µM (inactive). The GI50 in assay [18] was 32.8 µM (inactive).
Consider `O=C1/C(=C/c2ccccc2)CN(C(=O)C(Cl)(Cl)Cl)C/C1=C\c1ccccc1`, for which the GI50 was 0.356 µM (active) in [1]; 1.85 µM (inactive) in assay [2]; 0.43 µM (active) in assay [3]; 0.546 µM (active) in assay [4]; 9.23 µM (inactive) in assay [5]; 2.06 µM (inactive) in assay [6]. In addition, the GI50 in assay [7] was 1.58 µM (inactive); in assay [8], 0.94 µM (active); in assay [9] it was 1.29 µM (inactive); in assay [10] it was 0.551 µM (active); in assay [11] it was 2.08 µM (inactive); in assay [12], 0.159 µM (active). In addition, the GI50 was 1.64 µM (inactive) in assay [13]; 1.68 µM (inactive) in assay [14]; 1.73 µM (inactive) in assay [15]; 1.36 µM (inactive) in assay [16]; 1.15 µM (inactive) in assay [17]; 2.86 µM (inactive) in [18].
Regarding `CC(C)(C)c1ccc(-n2c3nc(=O)n(-c4ccccc4CO)c(=O)c-3cc3ccccc32)cc1`, the GI50 in [1] is 38.4 µM (inactive); in [2] it was 30.5 µM (inactive); in [3], 45.7 µM (inactive); in assay [4] it was 39.2 µM (inactive); in assay [5], 48.9 µM (inactive); in [6], 71.9 µM (inactive). For the same molecule, the GI50 in assay [7] is 30.5 µM (inactive); in assay [8], 20.5 µM (inactive); in assay [20], > 100 µM (inactive); in assay [9], 37.7 µM (inactive); in assay [10], 38.1 µM (inactive); in assay [11], 38.9 µM (inactive). The GI50 in assay [12] is 23.8 µM (inactive); in [13] it was 55.6 µM (inactive); in assay [14] it was 26.8 µM (inactive); in assay [15] it was 49 µM (inactive); in [16], 16.1 µM (inactive); in assay [17], 38.9 µM (inactive).
As for `O=S(=O)(N/N=C/c1c(Cl)cccc1Cl)c1ccccc1`, the GI50 in assay [1], in [2], in [3], in assay [19], in assay [4] and in assay [5] was > 100 µM (inactive) throughout. The GI50 was > 100 µM (inactive) in assay [6]; > 100 µM (inactive) in assay [7]; > 100 µM (inactive) in assay [8]; > 100 µM (inactive) in [9]; 66.1 µM (inactive) in assay [10]; > 100 µM (inactive) in assay [11]. In addition, the GI50 in assay [12] is 29.9 µM (inactive); in assay [13], 50.7 µM (inactive); in [14], 97.7 µM (inactive); in [15] it was > 100 µM (inactive); in assay [16], 91.4 µM (inactive); in assay [17], > 100 µM (inactive). In [18], the GI50 was > 100 µM (inactive).
For the molecule `Oc1ccccc1C1C=C(c2ccccc2)NC(N2CCCCC2)=C1c1nc2ccccc2[nH]1` (centres undefined), the GI50 in [1] was 11.7 µM (inactive); in [2], 12.4 µM (inactive); in assay [3], 8.05 µM (inactive); in [19], 13.5 µM (inactive); in assay [4], 16.3 µM (inactive); in assay [5] it was 6.11 µM (inactive). Also, the GI50 in [6] is 14.6 µM (inactive); in [7], 16 µM (inactive); in [8], 17 µM (inactive); in assay [9] it was 16.6 µM (inactive); in assay [10] it was 17.1 µM (inactive); in assay [11], 14.3 µM (inactive). For the same molecule, the GI50 in [12] is 14.2 µM (inactive); in assay [13], 15.1 µM (inactive); in assay [14], 15.8 µM (inactive); in [15] it was 13.3 µM (inactive); in [16] it was 13.7 µM (inactive); in assay [17], 13.9 µM (inactive). Besides, the GI50 in assay [18] is 14.6 µM (inactive).
As to `CCN(CC)c1ccc2cc(C(=O)Nc3nc(C45CC6CC(CC(C6)C4)C5)cs3)c(=O)oc2c1`, the GI50 in [1], in [2], in assay [3], in [4], in [5] and in assay [6] was > 100 µM (inactive) in each case. Besides, the GI50 in assay [7], in [8], in [20], in assay [9], in [10] and in [11] was > 100 µM (inactive) each time. Also, the GI50 in assay [12], in assay [13], in [15], in assay [16], in [17] and in [18] was > 100 µM (inactive) each time.
In the case of `CC1=Nc2ccccc2C12C(c1ccccc1)C(c1ccccc1)C(=O)N1c3ccccc3CC12` (centres undefined), the GI50 in assay [1], in assay [2], in assay [3], in [19], in [4] and in assay [5] was > 100 µM (inactive) throughout. Moreover, the GI50 in assay [6], in assay [7], in [8], in assay [20], in [9] and in [11] was > 100 µM (inactive) in each case. Further, the GI50 in assay [12] was > 100 µM (inactive); in assay [13] it was > 100 µM (inactive); in assay [14], > 100 µM (inactive); in assay [15] it was 19.9 µM (inactive); in assay [16] it was > 100 µM (inactive); in [17] it was > 100 µM (inactive). Moreover, the GI50 in assay [18] is > 100 µM (inactive).
Take `COc1ccc(-c2c3c([nH]c(=S)c2C#N)CC(C)(C)CC3=O)cc1`: the GI50 in assay [1] was > 100 µM (inactive); in assay [2], > 100 µM (inactive); in assay [3], 61.7 µM (inactive); in [4], > 100 µM (inactive); in [5], > 100 µM (inactive); in [6] it was > 100 µM (inactive). For the same molecule, the GI50 was > 100 µM (inactive) in assay [7]; > 100 µM (inactive) in assay [8]; > 100 µM (inactive) in [20]; > 100 µM (inactive) in assay [9]; 56.2 µM (inactive) in [10]; > 100 µM (inactive) in assay [11]. Besides, the GI50 in assay [12], in assay [13], in assay [14], in assay [15], in assay [16] and in assay [17] was > 100 µM (inactive) each time. For the same molecule, the GI50 in assay [18] was > 100 µM (inactive).
For `O=c1cc(NNc2ccccc2)[nH]c(=O)[nH]1`, the GI50 in assay [1] was 18.1 µM (inactive); in [2] it was 28.2 µM (inactive); in assay [3] it was 24.1 µM (inactive); in [19], > 100 µM (inactive); in assay [4], > 10 µM (inactive); in assay [5] it was > 100 µM (inactive). Further, the GI50 was 34.9 µM (inactive) in assay [6]; 16.1 µM (inactive) in assay [7]; 19.8 µM (inactive) in assay [8]; 18.8 µM (inactive) in [9]; 27.5 µM (inactive) in [10]; 27.5 µM (inactive) in assay [11]. Further, the GI50 in assay [12] is 18.2 µM (inactive); in assay [13], 16.1 µM (inactive); in [14] it was 14.8 µM (inactive); in [15], 16 µM (inactive); in assay [16], 27.2 µM (inactive); in assay [17], 80.9 µM (inactive). Moreover, the GI50 in assay [18] was 17.2 µM (inactive).
